From US12479816B2, “20-HETE formation inhibitors” (UNIVERSITY OF PITTSBURGH—OF THE COMMONWEALTH SYSTEM OF …, priority 2019, dated 2025)
In brackets after ≈: the same amount, converted by molar mass.

Legend:
[1] = target: T1, rCYP4F2 (Homo sapiens, UniProt P78329); experiment: Inhibition of 20-HETE formation at 250 or 500 nM in rCYP4F2 incubations; type: biochemical; conditions: 500 nM compound, rCYP4F2 25 pmol/mL; for inhibition at 0.5 µM: read-out: rCYP4F2 % inh. @ 500 nM
T1 sequence (P78329 5-520): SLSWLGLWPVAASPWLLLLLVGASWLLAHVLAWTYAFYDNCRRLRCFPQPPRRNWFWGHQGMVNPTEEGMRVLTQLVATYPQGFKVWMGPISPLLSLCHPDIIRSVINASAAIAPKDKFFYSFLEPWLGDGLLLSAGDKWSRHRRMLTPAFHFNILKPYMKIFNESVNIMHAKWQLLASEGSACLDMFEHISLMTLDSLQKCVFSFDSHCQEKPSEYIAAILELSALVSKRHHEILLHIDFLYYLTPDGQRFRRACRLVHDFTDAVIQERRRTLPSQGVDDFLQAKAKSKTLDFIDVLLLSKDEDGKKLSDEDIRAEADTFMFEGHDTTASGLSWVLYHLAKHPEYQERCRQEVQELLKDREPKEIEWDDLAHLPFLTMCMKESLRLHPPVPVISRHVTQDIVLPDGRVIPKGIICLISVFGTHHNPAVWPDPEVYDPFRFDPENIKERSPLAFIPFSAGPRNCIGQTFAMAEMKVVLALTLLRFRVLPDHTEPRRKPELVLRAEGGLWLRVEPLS
Procedure: (§1) To screen the inhibitory effects against 20-HETE formation, compounds were screened in HLM, RLM, RKM and rCYP4F2 microsomal incubations. Compounds dissolved in either 100% methanol or 100% DMSO to yield 10 mM stock solution. Microsomal incubations containing HLM, RLM, RKM (300 μg/ml) or rCYP4F2 (25 pmol/mL), AA (100 μM), NADPH (1 mM) treated with test compounds at various concentrations (500 nM or 250 nM) in a 1 ml total volume in incubation buffer (0.12 M potassium phosphate buffer containing 5 mM magnesium chloride). Reaction was started by adding NADPH to the incubates and was carried out at 37° C. in a shaking water bath for 20 min. Reaction was stopped by placing tubes on ice, followed by adding 125 μl 20-HETE-d6 as internal standard to each sample. Microsomal incubations were extracted with 3 ml ethyl ether twice, dried down under nitrogen gas and reconstituted in 125 μl 80:20 methanol:deionized H2O for analysis. 20-HETE formation was quantified using a validated UPLC-MS/MS assay and normalized by vehicle group. Each compound had three replications (n=3). Vehicle group was used as control to calculate percentage of 20-HETE formation rate. HET0016 (250 nM) was used as positive control. Incubates without NADPH group served as the negative control. An Acquity ultra performance LC autosampler (Waters, Milford, MA) was used to isolate 20-HETE on an UPLC BEH C18, 1.7 μm (2.1×100 mm) reversed-phase column (Waters, Milford, MA) protected by a guard column (2.1×5 mm; Waters, Milford, MA) of the same packing material. Column temperature was maintained at 55° C. Mobile phases consisted of 0.005% acetic acid, 5% acetonitrile in deionized water (A) and 0.005% acetic acid in acetonitrile (B). The flow rate for mobile phases is 0.5 ml/min. The initial mixture of mobile phase was 65:35 of A and B. Mobile phase B increased at 0.4 minutes after injection from 35% to 70% in a linear gradient over 4 minutes, and again increased to 95% over 0.5 minutes where it remained for 0.3 minutes. This was followed by a linear return to initial conditions over 0.1 minutes with a 1.5 minute pre-equilibration period prior to the next sample run. Total run time was 6.4 minutes for each injection. Injection volumes were 7.5 μl. Mass spectrometric analysis was carried out using a TSQ Quantum Ultra (Thermo Fisher Scientific, San Jose, CA) triple quadrupole mass spectrometer using heated electrospray ionization (HESI). Mass spectrometer was operated in negative selective reaction monitoring (SRM) mode with unit resolutions at both Q1 and Q3 set at 0.70 Da full width at half maximum. Scan time was set at 0.01 s and collision gas pressure was 1.3 mTorr. Quantitation of 20-HETE by SRM was performed by monitoring the m/z. Analytical data was acquired and analyzed using Xcaliber 3.0 data system (ThermoFinnigan, San Jose, CA).

[2] = test system: 20-HETE formation (CYP4) in RKM; experiment: Inhibition of 20-HETE formation at 250 or 500 nM in RKM microsomal incubations; type: biochemical, rat; conditions: 500 nM compound; RKM 300 μg/ml
Procedure: as §1

[3] = test system: 20-HETE formation (CYP4) in RLM; experiment: Inhibition of 20-HETE formation at 250 or 500 nM in RLM microsomal incubations; type: biochemical, rat; conditions: 500 nM compound; RLM 300 μg/ml
Procedure: as §1

[4] = test system: 20-HETE formation (CYP4) in HLM; experiment: Inhibition of 20-HETE formation at 250 or 500 nM in HLM microsomal incubations; type: biochemical, human; conditions: 500 nM compound; HLM 300 μg/ml, AA 100 μM, 20 min
Procedure: as §1

[5] = Turbidometric solubility determination; type: physicochemical; conditions: PBS with 1% DMSO, aqueous buffer, kinetic from dmso stock, room temperature, OD620, read-out: Max Solub
Procedure: Solubility determinations shown in Table 3 were obtained turbidometrically and in a manner similar to the one described in Perez et al., J. Biomol. Screen, 2015, 20(2), 254-64. The method requires small volumes of 100× stock concentration drug solution to be prepared in DMSO 0, 0.23, 0.47, 0.94, 1.88, 3.75, 7.5, 15.0, 30.0 and […]. The stock drug concentrations are then diluted 1:100 added into triplicate wells containing PBS in a clear bottom 384 well microtiter to achieve final testing concentrations of 0, 2.3, 4.7, 9.4, 18.8, 37.5, 75, 150, 300, 600 μM in 1% DMSO. The plate is allowed to equilibrate with constant shaking for 2 hours at room temperature. The plate is then placed in a SpectroMax V plate reader to measure absorbance at 620 nm. Increase in absorbance is evident in test wells which precipitation of the compound is evident. The plot of OD620 vs. drug concentration is used to calculate the maximum solubility limit as determined by a statistically significant increase in absorbance above the background levels.

inhibition at 0.5 µM [1] [%]	RKM % inh. @ 500 nM [2] [%]	RLM % inh. @ 500 nM [3] [%]	HLM % inh. @ 500 nM [4] [%]	solubility at 2 h [5] [µM]	rCYP4F2 % inh. @ 500 nM [1] [%]	SMILES
0	0.00	0.00	0.00			c1cnc(N2CCN(c3cn[nH]c3)CC2)nc1 [Compound 4, 2-(4-(1H-Pyrazol-4-yl)piperazin-1-yl)pyrimidine]
2.6	0.00	0.00	24.50			c1ccc(N2CCN(c3cn[nH]c3)CC2)cc1 [Compound 5, 1-Phenyl-4-(1H-pyrazol-4-yl)piperazine]
6.1	1.20	0.00	31.80			COc1ccc(N2CCN(c3cn[nH]c3)CC2)cc1 [Compound 6, 1-(4-Methoxyphenyl)-4-(1H-pyrazol-4-yl)piperazine]
0	0.00	0.00	0.00			c1cnc(C2CCN(c3ccn[nH]3)CC2)nc1 [Compound 9, 2-(1-(1H-Pyrazol-5-yl)piperidin-4-yl)pyrimidine]
0	0.00	0.00	0.00			c1cnc(C2CCN(c3cn[nH]c3)CC2)nc1 [Compound 10, 2-(1-(1H-Pyrazol-4-yl)piperidin-4-yl)pyrimidine]
66.5	1.60	3.60	0.00			COC(=O)c1ccc(C2CCN(c3ccn[nH]3)CC2)cc1 [Compound 11, Methyl 4-(1-(1H-pyrazol-5-yl)piperidin-4-yl)benzoate]
63.7	6.40	18.30	0.00			COC(=O)c1ccc(C2CCN(c3cn[nH]c3)CC2)cc1 [Compound 12, Methyl 4-(1-(1H-pyrazol-4-yl)piperidin-4-yl)benzoate]
1	27.00	3.00	29.00			CC(=O)N(C)c1ccc(C2CCN(c3cn[nH]c3)CC2)cn1 [Compound 13, N-(5-(1-(1H-Pyrazol-4-yl)piperidin-4-yl)pyridin-2-yl)-N-methylacetamide]
54	27.00	16.00	39.00			COc1cc(C2CCN(c3cn[nH]c3)CC2)ccn1 [Compound 15, 4-(1-(1H-Pyrazol-4-yl)piperidin-4-yl)-2-methoxypyridine]
54.7		0.00	61	164 (≈ 45.2 µg/mL)		COc1cc(F)cc(C2CCN(c3ccn[nH]3)CC2)c1 [Compound 73, 4-(3-Fluoro-5-methoxyphenyl)-1-(1H-pyrazol-5-yl)piperidine]
32		0.00	55	201 (≈ 55.3 µg/mL)		COc1cc(C2CCN(c3ccn[nH]3)CC2)ccc1F [Compound 74, 4-(4-Fluoro-3-methoxyphenyl)-1-(1H-pyrazol-5-yl)piperidine]
74.5		0.00	61.10	127 (≈ 35 µg/mL)		COc1cc(C2CCN(c3cn[nH]c3)CC2)ccc1F [Compound 75, 4-(4-Fluoro-3-methoxyphenyl)-1-(1H-pyrazol-4-yl)piperidine]
90		42.00	86	89 (≈ 25.8 µg/mL)		COc1ccc(SC2CCN(c3cn[nH]c3)CC2)cc1 [Compound 80, 4-((4-Methoxyphenyl)thio)-1-(1H-pyrazol-4-yl)piperidine]
80.3		42.70	79.4	> 600		O=C1CCCN1Cc1ccc(C2CCN(c3ccn[nH]3)CC2)cc1 [Compound 84, 1-(4-(1-(1H-Pyrazol-5-yl)piperidin-4-yl)benzyl)pyrrolidin-2-one]
72.9		0.00	34.8	324 (≈ 104 µg/mL)		CS(=O)(=O)Cc1ccc(C2CCN(c3cn[nH]c3)CC2)cc1 [Compound 89, 4-(4-((methylsulfonyl)methyl)phenyl)-1-(1H-pyrazol-4-yl)piperidine]
82.3		63.60	78.90	216 (≈ 70.1 µg/mL)		O=C1CCCN1c1ccc(CC2CCN(c3cn[nH]c3)CC2)cc1 [Compound 107, 1-(4-((1-(1H-Pyrazol-4-yl)piperidin-4-yl)methyl)phenyl)pyrrolidin-2-one]
83		41.70	90.00	187 (≈ 59.4 µg/mL)		O=S1(=O)Cc2ccc(C3CCN(c4cn[nH]c4)CC3)cc2C1 [Compound 108, 5-(1-(1H-Pyrazol-4-yl)piperidin-4-yl)-1,3-dihydrobenzo[c]thiophene 2,2-dioxide]
84.1		63.60	80.4	421 (≈ 144 µg/mL)		O=C1CCCN1Cc1ccc(C2CCN(c3ccn[nH]3)CC2)cc1F [Compound 110, 1-(4-(1-(1H-Pyrazol-5-yl)piperidin-4-yl)-2-fluorobenzyl)pyrrolidin-2-one]
87.4		36.70	68.7	74 (≈ 25.6 µg/mL)		O=S(=O)(Nc1ccc(C2CCN(c3cn[nH]c3)CC2)cc1)C1CC1 [Compound 114, N-(4-(1-(1H-pyrazol-4-yl)piperidin-4-yl)phenyl)cyclopropanesulfonamide]
		74.30	85.50	74	84.20	Cl.Clc1ccc(CC2CCN(c3cn[nH]c3)CC2)cc1 [Compound 115, 4-(4-Chlorobenzyl)-1-(1H-pyrazol-4-yl)piperidine hydrochloride]
